Laboratory results from ChEMBL document CHEMBL1201862, “PubChem BioAssay data set” (2004).
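96-well plates; 48 h exposure; 5 concentrations. Endpoints by linear interpolation between flanking doses. Not reached: highest tested concentration assigned. GI50: concentration for 50% inhibition of growth.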 Calls of active or inactive are those of the source. No stated cut-off is given here; in the data, active = GI50 up to about 1.1 µM and inactive = higher.

Legend:
Assay in all cases: NCI tumour cell line growth inhibition, 48 h
A549 = tested on: A549
ACHN = tested on: ACHN
COLO 205 = tested on: COLO 205
HCC 2998 = tested on: HCC 2998
HCT-15 = tested on: HCT-15
HOP-62 = tested on: HOP-62
IGROV-1 = tested on: IGROV-1
K562 = tested on: K562
LOX IMVI = tested on: LOX IMVI
M14 = tested on: M14
MOLT-4 = tested on: MOLT-4
Malme-3M = tested on: Malme-3M
NCI-H226 = tested on: NCI-H226
NCI-H522 = tested on: NCI-H522
OVCAR-4 = tested on: OVCAR-4
SF-539 = tested on: SF-539
SNB-75 = tested on: SNB-75
SW-620 = tested on: SW-620
TK-10 = tested on: TK-10
UO-31 = tested on: UO-31

Measured: GI50

CC(=O)Nc1ccc2c3c(cc(O)c2c1)N(C(=O)CCCCCC(=O)Nc1ccc2c4c(cc(O)c2c1)N(C(=O)OC(C)(C)C)CC4CCl)CC3CCl (centres undefined)
> 100 µM: HCT-15
active: MOLT-4 0.0585 µM | NCI-H522 1.05 µM
inactive: A549 12.3 µM | ACHN 3.54 µM | COLO 205 1.99 µM | HCC 2998 1.42 µM | HOP-62 1.81 µM | IGROV-1 8.05 µM | K562 3.3 µM | LOX IMVI 1.92 µM | M14 4.09 µM | Malme-3M 2.17 µM | NCI-H226 1.55 µM | OVCAR-4 5.36 µM | SF-539 2.37 µM | SNB-75 1.49 µM | SW-620 2.17 µM | TK-10 18 µM | UO-31 > 100 µM

COc1ccc(N2C(=O)C3c4[nH]c5c(C)cccc5c4C4CCC(C(C)(C)C)CC4C3C2=O)cc1 (centres undefined)
inactive: A549 7 µM | ACHN 5.12 µM | COLO 205 5.97 µM | HCC 2998 2.48 µM | HOP-62 > 10 µM | IGROV-1 > 10 µM | K562 4.51 µM | LOX IMVI 2.16 µM | M14 > 10 µM | MOLT-4 3.47 µM | Malme-3M > 10 µM | NCI-H226 > 10 µM | NCI-H522 > 10 µM | OVCAR-4 > 10 µM | SF-539 9.42 µM | SNB-75 > 10 µM | SW-620 6.62 µM | TK-10 9.14 µM | UO-31 2.72 µM
> 10 µM: HCT-15

Cc1ccc(S(=O)(=O)NCCCSCCO)cc1
inactive: A549 10.5 µM | ACHN > 100 µM | COLO 205 18.3 µM | HCC 2998 > 100 µM | K562 38.4 µM | LOX IMVI 29 µM | M14 28.6 µM | MOLT-4 56.5 µM | NCI-H226 27.9 µM | NCI-H522 > 100 µM | OVCAR-4 96.8 µM | SNB-75 33.1 µM | SW-620 89.7 µM | TK-10 90.8 µM | UO-31 > 100 µM
> 100 µM: HCT-15

OC12c3ccccc3C1CCCCCCCCCC21OCCCO1 (centres undefined)
5.15 µM: HCT-15
inactive: A549 > 100 µM | COLO 205 > 100 µM | HCC 2998 > 100 µM | HOP-62 > 100 µM | IGROV-1 > 100 µM | K562 5.09 µM | LOX IMVI > 100 µM | M14 > 100 µM | Malme-3M > 100 µM | NCI-H226 > 100 µM | NCI-H522 > 100 µM | OVCAR-4 > 100 µM | SF-539 > 100 µM | SNB-75 > 100 µM | SW-620 > 100 µM | TK-10 > 100 µM | UO-31 > 100 µM

CN(C)C(=S)/N=c1\ssc(=S)n1Cc1ccco1
active: K562 0.348 µM | NCI-H522 0.249 µM | SNB-75 0.771 µM | SW-620 0.701 µM
2.2 µM: HCT-15
inactive: A549 1.98 µM | ACHN 32.3 µM | COLO 205 2.21 µM | HCC 2998 4.61 µM | HOP-62 2.56 µM | IGROV-1 11.1 µM | LOX IMVI 2.4 µM | M14 2.15 µM | MOLT-4 2.09 µM | Malme-3M 3.79 µM | NCI-H226 12 µM | OVCAR-4 13.6 µM | SF-539 1.95 µM | TK-10 20.6 µM | UO-31 5.57 µM

O=[N+]([O-])c1ccccc1S(=O)(=O)c1ccccc1
> 100 µM: HCT-15
inactive: A549 > 100 µM | ACHN > 100 µM | COLO 205 > 100 µM | HCC 2998 > 100 µM | HOP-62 > 100 µM | IGROV-1 > 100 µM | K562 > 100 µM | LOX IMVI > 100 µM | M14 > 100 µM | MOLT-4 > 100 µM | Malme-3M > 100 µM | NCI-H226 88.1 µM | OVCAR-4 52.6 µM | SF-539 > 100 µM | SNB-75 23 µM | SW-620 > 100 µM | TK-10 > 100 µM | UO-31 28.2 µM

COc1ccccc1-c1cc(O)c2ccc(C)nc2n1
43.4 µM: HCT-15
inactive: A549 > 100 µM | ACHN > 100 µM | COLO 205 54.1 µM | HCC 2998 > 100 µM | HOP-62 > 100 µM | IGROV-1 40.6 µM | K562 58.9 µM | LOX IMVI > 100 µM | M14 98.2 µM | MOLT-4 > 100 µM | Malme-3M 51.5 µM | NCI-H226 > 100 µM | NCI-H522 56.6 µM | OVCAR-4 > 100 µM | SF-539 > 100 µM | SW-620 50.9 µM | TK-10 > 100 µM | UO-31 > 100 µM

COc1cc(O)c2c(=O)c(O)c(-c3ccc(O)c(O)c3)oc2c1 [RHAMNETIN]
inactive: A549 15 µM | ACHN 5.47 µM | COLO 205 13.5 µM | HCC 2998 14 µM | HOP-62 14.6 µM | IGROV-1 40.3 µM | K562 9.53 µM | LOX IMVI 11.7 µM | M14 5.15 µM | MOLT-4 6.95 µM | Malme-3M 17.7 µM | NCI-H522 3.15 µM | SW-620 10.8 µM | TK-10 21.4 µM | UO-31 6.05 µM
active: OVCAR-4 0.403 µM
8.04 µM: HCT-15
